Legend:
Assay type in all cases: biochemical
[1] = target: T1, protein kinases (panel of Table 4); test: Kinase selectivity profile, kinase inhibition IC50 (Table 4), ATP 100 μM; details: kinase PKC
T1 construct: other: kinase PKC; ATP 100 μM
Method: (§1) For the assays shown in Table 3, the kinases were assayed at the following ATP concentrations: SAPK4, PKBΔph, GSK3b, SAPK3, CK2, MKK1, PIM2, IKKB, ERK8, and PRK2 at 5 μM; JNK, PRAK, ROCK-II, SAPK2b, CDK2, CHK1, MSK1, CSK, P70S6K, PKA, CK1, MAPKAP-K2, SGK, PKCa, PDK1, NEK 7, and MAPKAP-K3 at 20 μM; SAPK2a, LCK, AMPK, MAPK2, DYRK1a, MAPKAP-K1a, NEK-6, NEK2a, PBK, CAMK-1, SRPK-1, JNK3, MNK2, RSK2, MNK1, PKBB, and SmMLCK at 50 μM. For the assays in Table 4 the ATP concentration was 100 μM throughout.

[2] = target: T2, protein kinases (panel of Table 4) (Homo sapiens, UniProt P53350); test: as above; details: kinase Plk1
T2 construct: other: kinase Plk1; ATP 100 μM
Method: as §1

[3] = target: T3, Flt3 (FMS-like tyrosine kinase-3) (Homo sapiens, UniProt P36888); test: Kinase assay (radioactive phosphate incorporation), Flt3; details: pIC50 is -log(IC50, M), read-out: Kinase Inhibition pIC50 Flt3 (converted)
T3 sequence (P36888 27-993): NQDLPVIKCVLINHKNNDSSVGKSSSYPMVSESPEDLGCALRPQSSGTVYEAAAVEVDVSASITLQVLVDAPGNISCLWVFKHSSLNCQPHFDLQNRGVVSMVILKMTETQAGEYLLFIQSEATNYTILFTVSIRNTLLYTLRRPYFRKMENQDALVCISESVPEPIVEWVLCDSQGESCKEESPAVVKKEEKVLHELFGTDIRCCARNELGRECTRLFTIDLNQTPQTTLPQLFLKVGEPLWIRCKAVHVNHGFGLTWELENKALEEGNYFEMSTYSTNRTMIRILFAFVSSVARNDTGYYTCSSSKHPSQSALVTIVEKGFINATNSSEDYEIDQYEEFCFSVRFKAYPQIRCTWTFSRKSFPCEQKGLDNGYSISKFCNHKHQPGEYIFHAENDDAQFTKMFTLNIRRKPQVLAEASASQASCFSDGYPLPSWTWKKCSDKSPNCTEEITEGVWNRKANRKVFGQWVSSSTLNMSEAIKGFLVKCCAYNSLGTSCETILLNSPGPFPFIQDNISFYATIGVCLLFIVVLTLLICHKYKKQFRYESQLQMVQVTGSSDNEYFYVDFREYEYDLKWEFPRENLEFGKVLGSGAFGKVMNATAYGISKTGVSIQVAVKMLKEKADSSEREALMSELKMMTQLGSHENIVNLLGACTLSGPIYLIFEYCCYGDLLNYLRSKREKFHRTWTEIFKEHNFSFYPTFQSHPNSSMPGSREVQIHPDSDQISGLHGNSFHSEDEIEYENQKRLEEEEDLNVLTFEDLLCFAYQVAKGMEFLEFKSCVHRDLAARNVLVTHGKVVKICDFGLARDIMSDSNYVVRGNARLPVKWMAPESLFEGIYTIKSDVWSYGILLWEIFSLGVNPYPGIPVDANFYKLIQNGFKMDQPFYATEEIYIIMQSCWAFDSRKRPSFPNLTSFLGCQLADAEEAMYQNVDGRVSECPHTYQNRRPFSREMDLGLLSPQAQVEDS
Outline: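 Recombinant kinases (2-4 μg) with polypeptide substrates in pH 7.4 MOPS/β-glycerophosphate buffer. Reactions started with 15 mM MgCl2 + 100 μM ATP containing [γ-32P]-ATP and incubated at 30° C. Filter-bound incorporated radioactivity counted by scintillation; compounds diluted from DMSO stocks into 10% DMSO buffer.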

[4] = target: T4, Aurora A kinase (Homo sapiens, UniProt O14965); test: Aurora-A (human) kinase assay (Kemptide substrate); details: pIC50 is -log(IC50, M); 15 μM ATP; read-out: Kinase Inhibition pIC50 Aurora A kinase (converted)
T4 construct: purchased
T4 sequence (O14965 1-403): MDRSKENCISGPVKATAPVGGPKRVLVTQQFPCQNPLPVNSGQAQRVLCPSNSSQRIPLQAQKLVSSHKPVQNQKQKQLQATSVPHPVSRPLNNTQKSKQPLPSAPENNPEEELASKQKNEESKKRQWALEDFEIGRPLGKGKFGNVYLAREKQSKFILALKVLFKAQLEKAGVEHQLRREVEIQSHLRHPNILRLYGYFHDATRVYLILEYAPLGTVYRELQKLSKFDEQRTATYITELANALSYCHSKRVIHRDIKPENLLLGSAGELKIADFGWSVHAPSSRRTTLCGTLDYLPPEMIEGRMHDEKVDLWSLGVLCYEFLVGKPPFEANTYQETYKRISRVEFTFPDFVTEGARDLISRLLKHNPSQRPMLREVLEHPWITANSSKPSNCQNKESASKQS
Outline: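 Radiometric filter-binding assay: commercial aurora-A kinase (5-10 ng) with 200 μM Kemptide in MOPS/EDTA pH 7.0, started with 10 mM Mg acetate and 15 μM ATP plus [γ-33P]-ATP. Incubated 40 min at room temperature, stopped with phosphoric acid, incorporated 33P counted by scintillation.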

T2 sequence (P53350 whole entry): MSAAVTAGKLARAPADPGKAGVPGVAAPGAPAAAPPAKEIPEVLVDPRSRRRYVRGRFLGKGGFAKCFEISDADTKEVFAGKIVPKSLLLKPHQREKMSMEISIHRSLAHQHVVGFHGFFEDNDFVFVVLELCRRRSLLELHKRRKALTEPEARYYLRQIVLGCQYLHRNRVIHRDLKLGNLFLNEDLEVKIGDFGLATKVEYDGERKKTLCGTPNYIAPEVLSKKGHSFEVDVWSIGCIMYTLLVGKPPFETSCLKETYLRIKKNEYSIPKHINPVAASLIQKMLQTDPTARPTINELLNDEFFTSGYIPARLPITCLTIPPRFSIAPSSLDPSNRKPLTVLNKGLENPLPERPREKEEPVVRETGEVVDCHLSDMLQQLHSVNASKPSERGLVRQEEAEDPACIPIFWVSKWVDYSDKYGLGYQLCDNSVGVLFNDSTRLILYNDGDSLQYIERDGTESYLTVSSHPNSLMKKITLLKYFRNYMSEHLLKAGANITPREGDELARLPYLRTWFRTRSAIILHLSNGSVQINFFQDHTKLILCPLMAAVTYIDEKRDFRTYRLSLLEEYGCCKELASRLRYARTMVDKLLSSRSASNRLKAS

| Compound | IC50 [1] | IC50 [2] | IC50 [3] | IC50 [4] |
| --- | --- | --- | --- | --- |
| CNc1nc(C)c(-c2ccnc(Nc3cccc(S(N)(=O)=O)c3)n2)s1 [Compound 19, 3-[4-(4-Methyl-2-methylamino-thiazol-5-yl)-pyrimidin-2-ylamino]-benzenesulfonamide] | 5500 nM | > 10000 nM | 31.6 nM | 39.8 nM |
| CNc1nc(C)c(-c2ccnc(Nc3cccc(S(C)(=O)=O)c3)n2)s1 [Compound 27, (3-Methanesulfonyl-phenyl)-[4-(4-methyl-2-methylamino-thiazol-5-yl)-pyrimidin-2-yl]-amine] | > 10000 nM | > 10000 nM | 63.1 nM | 316 nM |
| CNc1nc(C)c(-c2ccnc(Nc3ccc(C)c(S(=O)(=O)N4CCOCC4)c3)n2)s1 [Compound 37, [4-(4-Methyl-2-methylamino-thiazol-5-yl)-pyrimidin-2-yl]-[4-methyl-3-(morpholine-4-sulfonyl)-phenyl]-amine] | 6400 nM | > 10000 nM | 158 nM | 1000 nM |
| Cc1ccc(Nc2nccc(-c3sc(N)nc3C)n2)cc1S(=O)(=O)N1CCOCC1 [Compound 38, [4-(2-Amino-4-methyl-thiazol-5-yl)-pyrimidin-2-yl]-[4-methyl-3-(morpholine-4-sulfonyl)-phenyl]-amine] | 2500 nM | > 10000 nM | 200 nM | 501 nM |
| COCCNS(=O)(=O)c1cccc(Nc2nccc(-c3sc(N)nc3C)n2)c1 [Compound 55, 3-[4-(2-Amino-4-methyl-thiazol-5-yl)-pyrimidin-2-ylamino]-N-(2-methoxy-ethyl)-benzenesulfonamide] | 5800 nM | > 10000 nM | 200 nM | 158 nM |
| CCNc1nc(C)c(-c2ccnc(Nc3ccc(N4CCNCC4)cc3)n2)s1 [Compound 59, [4-(2-Ethylamino-4-methyl-thiazol-5-yl)-pyrimidin-2-yl]-(4-piperazin-1-yl-phenyl)-amine] | > 10000 nM | > 10000 nM | 15.8 nM | 79.4 nM |
| Cc1nc(CS(=O)(=O)c2cccs2)sc1-c1ccnc(Nc2ccc(N3CCOCC3)cc2)n1 [Compound 138, {4-[4-Methyl-2-(thiophene-2-sulfonylmethyl)-thiazol-5-yl]-pyrimidin-2-yl}-(4-morpholin-4-yl-phenyl)-amine] | – | – | – | 50.1 nM |
